Data set [1] concerns Plasmodium falciparum. In words: Antiplasmodial activity against chloroquine-resistant Plasmodium falciparum assessed as inhibition of [3H]hypoxanthine incorporation incubated for 20 to 24 hr prior to [3H]hypoxanthine addition measured after 24 grs by microbeta scintillation counting. It is filed as functional, organism-based.
For data set [2], the system named is Plasmodium falciparum. In words: Antiplasmodial activity against chloroquine-sensitive Plasmodium falciparum assessed as inhibition of [3H]hypoxanthine incorporation incubated for 20 to 24 hr prior to [3H]hypoxanthine addition measured after 24 grs by microbeta scintillation counting. It is filed as functional, organism-based.
Data set [3] concerns Plasmodium falciparum. As to the kind of experiment: Antiplasmodial activity against chloroquine-sensitive Plasmodium falciparum by schizont maturation assay. It is filed as functional, organism-based.
Data set [4] has as its system Plasmodium falciparum. As to the kind of experiment: Antiplasmodial activity against chloroquine-resistant Plasmodium falciparum by schizont maturation assay. It is filed as functional, organism-based.
A short description of data set [5]: Cytotoxicity against Homo sapiens (human) RBC assessed as cell lysis. It is filed as cell-based. Particulars: erythrocyte.

Active and inactive are the calls of the source. No cut-off for these calls is given here.

On to `CC[C@H](C)[C@H](NC(=O)OC(C)(C)C)C(=O)Nc1nccs1`, for which, in data set [1], the IC50 is 7.84 µM and the IC90 amounted to 11.1 µM. Moreover, in data set [2], the IC50 was 6.32 µM and the IC90 is 9.74 µM.

Take `CC(C)(C)OC(=O)N[C@@H](Cc1c[nH]c2ccccc12)C(=O)Nc1nccs1`: the outcome in data set [3] and in data set [4] was Active. The IC50 in data set [1] came to 4.87 µM; in data set [2], 3.45 µM. Moreover, the IC90 is 9.12 µM in data set [1] and 7.89 µM in data set [2]. Besides, the Activity entry in data set [5] is on record as “Non-toxic”. The IC99 in data set [2] was 18.1 µM.

In the case of `CC1CCCN1[C@H](NC(=O)OC(C)(C)C)C(=O)Nc1nccs1` (stereo partly drawn), the result in data set [3] and in data set [4] was Active. The figures for the IC50 in data set [1] and in data set [2] were 6.12 µM and 4.89 µM, respectively. In addition, the IC90 in data set [1] turned out to be 12.7 µM; in data set [2], 11.1 µM. The Activity entry in data set [5] is “Non-toxic”. Moreover, the IC99 in data set [2] turned out to be 14.9 µM.

Regarding `CCN(CC)CCCC(C)Nc1ccnc2cc(Cl)ccc12` (stereo not drawn) [CHLOROQUINE], the IC90 was 0.25 µM in data set [1] and 0.05 µM in data set [2].

Regarding `CSCC[C@H](NC(=O)OC(C)(C)C)C(=O)Nc1nccs1`, the IC50 in data set [1] came out at 18.2 µM; in data set [2] it was 10.2 µM. Moreover, the IC90 in data set [1] stood at 31.4 µM; in data set [2], 29.1 µM.

`N[C@H](Cc1c[nH]c2ccccc12)C(=O)Nc1nccs1`: in data set [1], the IC50 was 19.5 µM and the concentration for an effect of 90% (IC90) was found to be 17.1 µM. In addition, in data set [2], the IC50 came to 11.1 µM and the IC90 amounted to 16.1 µM.

With `CC(C)(C)OC(=O)NCC(=O)Nc1nccs1`, in data set [1], the IC50 came to 17.5 µM and the concentration for an effect of 90% (IC90) came out at 22.4 µM. In addition, in data set [2], the IC50 amounted to 14.3 µM and the IC90 stood at 21.3 µM.

Turning to `CC(C)C[C@H](NC(=O)OC(C)(C)C)C(=O)Nc1nccs1`, in data set [1], the IC50 amounted to 8.96 µM and the IC90 was found to be 18.3 µM. Moreover, in data set [2], the concentration for half-maximal inhibition (IC50) turned out to be 6.31 µM and the IC90 was determined as 14.5 µM.

Take `CC(C)[C@H](NC(=O)OC(C)(C)C)C(=O)Nc1nccs1`: the IC50 in data set [1] is 10.9 µM; in data set [2], 9.32 µM. The IC90 in data set [1] came to 18.6 µM; in data set [2], 12.5 µM.

Turning to `N[C@H](Cc1ccccc1)C(=O)Nc1nccs1`, the IC50 in data set [1] worked out at 17.4 µM; in data set [2] it was 16.1 µM. The values for the IC90 in data set [1] and in data set [2] were 45.7 µM and 33.5 µM, respectively.

Take `CC(C)(C)OC(=O)N[C@@H](Cc1ccccc1)C(=O)Nc1nccs1`: in data set [1], the IC50 stood at 7.41 µM and the IC90 amounted to 18.6 µM. Besides, in data set [2], the IC50 was 5.62 µM and the concentration for an effect of 90% (IC90) came out at 16.3 µM.

Consider `CC(C)(C)OC(=O)N[C@@H](CSCc1ccccc1)C(=O)Nc1nccs1`, for which, in data set [1], the IC50 turned out to be 10.8 µM and the IC90 turned out to be 15.5 µM. In data set [2], the IC50 came out at 9.11 µM and the IC90 is 12.6 µM.

On to `C[C@H](NC(=O)OC(C)(C)C)C(=O)Nc1nccs1`, for which, in data set [1], the half-inhibitory concentration (IC50) amounted to 18.7 µM and the IC90 came out at 27.2 µM. For the same molecule, in data set [2], the IC50 was found to be 12.1 µM and the 90% effect concentration (IC90) amounted to 24.5 µM.

The record behind these values is ChEMBL document CHEMBL3044965, “Design, synthesis, and antimalarial evaluation of thiazole-derived amino acids” (Med Chem Res, 2008).
